Patent publication US6239171A, “Tocotrienols and tocotrienol-like compounds and methods for their use” (Lipogenics, Inc., priority 1998, dated 2001)

Legend:
Assay type in all cases: in vivo, chicken
[1] = tested on: chickens; experiment: Serum cholesterol, apolipoproteins, triglycerides and glucose in chickens fed supplemented diets; conditions: 4 weeks; for increase in the HDL-/LDL-cholesterol ratio / reduction of serum cholesterol: 100 ppm in diet; for APO A1, percentage of control / APO A1 in serum / APO B in serum / APO B, percentage of control / DL-Cholesterol/Total Cholesterol / DL-Cholesterol/Total Cholesterol, percentage of control / Glucose in serum / Glucose, percentage of control / HDL-Cholesterol in serum / HDL-Cholesterol, percentage of control / HDL-Cholesterol/LDL-Cholesterol / HDL-Cholesterol/LDL-Cholesterol, percentage of control / LDL-Cholesterol in serum / LDL-Cholesterol, percentage of control / Total Cholesterol in serum / Total Cholesterol, percentage of control / Triglycerides in serum / Triglycerides, percentage of control: control diet + 100 ppm
Text: All assays conducted on chicken or swine serum were done following the protocols described in A. A. Qureshi et al., "Lowering Of Serum Cholesterol In Hypercholesterolemic Humans By Tocotrienols" (Palmvitee), Am. J. Clin. Nutr., 53, pp. 1021S-26S (1991). All enzymatic assays were done following the protocols described in A. A. Qureshi et al., "Effects of Cereals and Culture Filtrate of Trichoderma viride on Lipid Metabolism of Swine", Lipids, 17, pp. 924 (1982). Plasma insulin, glucagon and TNF levels were measured using radioinnumoassay kits from Ventrex Laboratories, Inc. (Portland, Me.), ICN Biomedicals, Inc. (Costa Mesa, Calif.) and Genzyme Corp. (Cambridge, Mass.), respectively. […]
Each group of 6 chickens (6-week old female while leghorn) was administered the chick mash diet described in Example 5, supplemented with one of three different amounts of waxes (sterols), 50 ppm of TRF (prepared as in Example 2) or 5% equivalent of the methanol insoluble fraction Louisiana rice bran oil. […] The birds were fasted for a period of 14 hours prior to sacrifice (at 0800 hours). […]

[2] = tested on: chickens; experiment: Antibody titers to sheep red blood cells in chickens; conditions: control diet + 100 ppm, 4 weeks, sheep red blood cells i.p.
Experimental: The model for this study was 6-week old female white leghorn chickens. Each group of 12 chickens was fed an unsupplemented chicken diet or a control diet supplemented with 50 ppm of a tocotrienol or 100 ppm of a commercially available hypercholesterolemic agent (Geraniol or Lovastatin). […] The chickens were fed over a period of 4 weeks, then the blood was drawn. The antibody response was determined by injecting the chickens i.p. with 0.5 ml of a 5% suspension of sheep red blood cells (RBCs) in PBS (v/v) which were previously washed three times. […] Relative IgG levels were determined by using 2-mercaptoethanol preincubation for 30 min. The relative IgM levels were calculated by subtracting the IgG antibody levels from total antibody levels. All antibody levels are expressed as the log base 2 of the highest titer that was needed to hemagglutinate an equal volume of 0.5% RBC suspension.

[3] = tested on: chickens; experiment: Plasma thromboxane B2 and platelet factor 4 in chickens fed supplemented diets; conditions: control diet + 100 ppm, 4 weeks
Text: We next measured the effects of TRF and its components on serum levels of apolipoprotein (a)1, apolipoprotein B, triglycerides and glucose and the plasma levels of thromboxane B2 and platelet factor 4.

[4] = tested on: cholesterol 7α-hydroxylase; experiment: Hepatic cholesterol 7α-hydroxylase activity in chickens fed supplemented diets; conditions: control diet + 100 ppm, 4 weeks
Experimental: (§1) This example measured the effects of the TRF and its components on the hepatic enzymatic activity of HMG-CoA reductase and cholesterol 7α-hydroxylase. […] The amount of feed consumed ranged from 11.19-11.60 g per chicken and the feeding period was 4 weeks. The birds were fasted for a period of 36 hours and refed for 48 hours prior to sacrifice (at 0800 hours).

[5] = target: T1, HMG-CoA reductase (Homo sapiens, UniProt P04035); experiment: Hepatic HMG-CoA reductase activity in chickens fed supplemented diets; conditions: control diet + 100 ppm, 4 weeks
T1 construct: hepatocytes isolated from livers of 8-week old female chickens; endogenous in cells; host or cells: primary chicken hepatocytes
T1 sequence (P04035 1-888): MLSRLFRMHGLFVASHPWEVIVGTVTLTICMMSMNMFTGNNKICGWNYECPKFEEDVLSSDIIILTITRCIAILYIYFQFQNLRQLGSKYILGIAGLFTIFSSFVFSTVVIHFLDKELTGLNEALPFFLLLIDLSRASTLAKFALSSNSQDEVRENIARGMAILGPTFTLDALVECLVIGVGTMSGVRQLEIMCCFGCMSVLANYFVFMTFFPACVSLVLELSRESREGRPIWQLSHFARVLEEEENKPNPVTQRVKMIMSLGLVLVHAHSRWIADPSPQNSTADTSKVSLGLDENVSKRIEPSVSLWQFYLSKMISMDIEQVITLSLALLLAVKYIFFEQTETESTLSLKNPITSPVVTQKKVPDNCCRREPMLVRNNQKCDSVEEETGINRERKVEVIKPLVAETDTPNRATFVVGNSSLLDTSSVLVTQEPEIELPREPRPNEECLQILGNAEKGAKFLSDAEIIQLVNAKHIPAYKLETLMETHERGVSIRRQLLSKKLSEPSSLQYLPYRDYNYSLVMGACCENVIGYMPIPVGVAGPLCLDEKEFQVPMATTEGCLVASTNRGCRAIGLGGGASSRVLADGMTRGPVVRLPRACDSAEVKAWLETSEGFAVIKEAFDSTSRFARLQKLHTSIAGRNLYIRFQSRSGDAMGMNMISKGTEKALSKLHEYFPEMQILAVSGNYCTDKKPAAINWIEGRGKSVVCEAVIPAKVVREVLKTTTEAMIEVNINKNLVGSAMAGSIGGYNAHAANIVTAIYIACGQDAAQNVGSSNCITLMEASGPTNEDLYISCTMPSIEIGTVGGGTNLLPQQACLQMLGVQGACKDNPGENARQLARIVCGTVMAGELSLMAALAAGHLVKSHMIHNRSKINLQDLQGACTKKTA
Experimental: as §1

SMILES | increase in the HDL-/LDL-cholesterol ratio [1] | reduction of serum cholesterol [1] | APO A1, percentage of control [1] | APO A1 in serum [1] | APO B in serum [1] | APO B, percentage of control [1] | DL-Cholesterol/Total Cholesterol [1] | DL-Cholesterol/Total Cholesterol, percentage of control [1] | Glucose in serum [1] | Glucose, percentage of control [1] | HDL-Cholesterol in serum [1] | HDL-Cholesterol, percentage of control [1] | HDL-Cholesterol/LDL-Cholesterol [1] | HDL-Cholesterol/LDL-Cholesterol, percentage of control [1] | LDL-Cholesterol in serum [1] | LDL-Cholesterol, percentage of control [1] | Total Cholesterol in serum [1] | Total Cholesterol, percentage of control [1] | Triglycerides in serum [1] | Triglycerides, percentage of control [1] | other results
CC(C)=CCC/C(C)=C/CO [Geraniol] | ≤ 31.5% | 14% | 98.58% | 138.40 mg/100 ml | 29.20 mg/100 ml | 88.22% | 0.65 | 110.10% | 227.60 mg/100 ml | 101.47% | 82.28 ± 1.06 mg/dL | 98.35% | 2.00 | 131.50% | 41.07 ± 1.13 mg/dL | 96.30% | 122.53 ± 1.37 mg/dL | 85.82% | 71.29 mg/100 ml | 96.30% | IgG antibody titers in serum [2]: 1.00 ± 0.00 Log 2; IgM antibody titers in serum [2]: 5.42 Log 2; Total Ab titers in serum [2]: 5.60 ± 2.11 Log 2; Platelet Factor 4 [3]: 12.38 ng/mL; Platelet Factor 4, percentage of control [3]: 94.57%; Thromboxane B2 [3]: 25.46 pg/mL; Thromboxane B2, percentage of control [3]: 98.53%; Cholesterol 7α-Hydroxylase, percentage of control [4]: 100.59%; Cholesterol 7α-hydroxylase [4]: 10.28 nmol/min/mg; HMG-CoA Reductase, percentage of control [5]: 87.65%
CC[C@H](C)C(=O)O[C@H]1C[C@@H](C)C=C2C=C[C@H](C)[C@H](CC[C@@H]3C[C@@H](O)CC(=O)O3)[C@H]21 [Lovastatin] | ≤ 31.5% | 10% | 99.29% | 139.9 mg/100 ml | 25.80 mg/100 ml | 77.95% | 0.63 | 108.00% | 220.10 mg/100 ml | 98.13% | 81.38 ± 0.73 mg/dL | 97.28% | 1.84 | 121.40% | 44.12 ± 1.26 mg/dL | 86.51% | 128.65 ± 1.02 mg/dL | 90.11% | 64.04 mg/100 ml | 86.51% | IgG antibody titers in serum [2]: 1.00 ± 0.00 Log 2; IgM antibody titers in serum [2]: 5.90 Log 2; Total Ab titers in serum [2]: 6.33 ± 1.44 Log 2; Platelet Factor 4 [3]: 12.24 ng/mL; Platelet Factor 4, percentage of control [3]: 93.51%; Thromboxane B2 [3]: 24.89 pg/mL; Thromboxane B2, percentage of control [3]: 96.32%; Cholesterol 7α-Hydroxylase, percentage of control [4]: 110.96%; Cholesterol 7α-hydroxylase [4]: 11.34 nmol/min/mg
